Measured values published in EP0244803B1, “Novel dopamine beta hydroxylase inhibitors” (MERRELL DOW PHARMACEUTICALS INC., priority 1986, dated 1987).

Legend:
[1] = target: T1, dopamine beta-hydroxylase (DBH) (Bos taurus, UniProt P15101); experiment: In vitro DBH inhibition: conversion of tyramine to octopamine, oxygen uptake measured with a polarographic electrode; assay type: biochemical; conditions: pH 5, 37°C preferred; concentration at which DBH activity was halved; read-out: IC₅₀
T1 sequence (P15101 33-610): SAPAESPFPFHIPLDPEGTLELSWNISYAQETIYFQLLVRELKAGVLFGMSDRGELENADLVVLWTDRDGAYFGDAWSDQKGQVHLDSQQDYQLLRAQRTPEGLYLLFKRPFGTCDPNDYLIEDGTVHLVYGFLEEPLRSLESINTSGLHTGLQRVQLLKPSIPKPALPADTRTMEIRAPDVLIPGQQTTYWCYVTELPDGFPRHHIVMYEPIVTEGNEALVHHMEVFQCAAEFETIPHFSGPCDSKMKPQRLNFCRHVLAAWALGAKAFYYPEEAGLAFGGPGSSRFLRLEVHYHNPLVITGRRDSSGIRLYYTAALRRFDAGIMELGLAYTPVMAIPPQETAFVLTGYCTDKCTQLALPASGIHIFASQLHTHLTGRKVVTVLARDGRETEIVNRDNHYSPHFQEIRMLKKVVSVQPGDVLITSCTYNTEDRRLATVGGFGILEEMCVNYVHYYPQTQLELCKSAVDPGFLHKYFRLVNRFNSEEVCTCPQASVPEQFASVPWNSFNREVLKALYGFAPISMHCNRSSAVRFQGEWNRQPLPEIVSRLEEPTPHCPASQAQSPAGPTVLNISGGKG
Protocol: The DBH inhibitory properties of the compounds of this invention can readily be determined in vitro by standard and well known procedures for assaying conversion of tyramine to octopamine in the presence of dopamine beta-hydroxylase. Enzymatic oxygenation by DBH is determined in aqueous solution in the presence of molecular oxygen, an electron donor such as ascorbate, and the necessary cofactors for the enzyme at pH of 5 and a temperature of 20°-40°C, preferably 37°C. The test compound is added at the desired concentration, and the system is incubated.

DBH = experiment: In vivo DBH inhibition: heart dopamine level in spontaneously hypertensive rats; conditions: Treated SHR's, 50 mg/kg, IP, 3 hours post dose; mean ± standard deviation; micrograms of dopamine per gram of heart tissue; *** p<.001 vs control
Protocol: In this test spontaneously hypertensive rats are dosed (i.p.) at 50 mg per kilogram of body weight and sacrificed three hours later.

[2] = test system: spontaneously hypertensive rats (SHR's); experiment: Antihypertensive effect: blood pressure monitored continuously in SHR's after ip administration; assay type: in vivo; conditions: 50 mg/kg; for Max Change MBP: mean difference ± standard deviation; for Max Change MBP (percent, in parentheses): percent change printed in parentheses
Protocol: The test compound is administered intraperitoneally (ip) to rats and the blood pressure monitored continuously.

Compound | IC50 [1] | Heart DA (DBH) | Max Change MBP [2] | Max Change MBP (percent, in parentheses) [2]
Cc1ccc(Cn2cc[nH]c2=S)s1 [Compound 5, 1,3-Dihydro-1-[(5-methyl-2-thienyl)methyl]-2H-imidazole-2-thione] | 6 µM | Treated .048±.004*** µg/g | -37±19 mmHg | 10%
1-[(Fluoro-2-thienyl)methyl]-1,3-dihydro-2H-imidazole-2-thione [Compound 6] | 2.9 µM | Treated .045±.005*** µg/g | -42±17 mmHg | 25%
S=c1[nH]ccn1Cc1ccsc1 [Compound 2, 1,3-Dihydro-1-(3-thienylmethyl)-2H-imidazole-2-thione] |  | Treated .066±.012*** µg/g | -21±27 mmHg | 12%
S=c1[nH]ccn1Cc1cccs1 [Compound 1, 1,3-Dihydro-(2-thienylmethyl)-2H-imidazole-2-thione] |  | Treated .066±.005*** µg/g | -30±21 mmHg | 18%
S=c1[nH]ccn1Cc1ccc(Cl)s1 [Compound 4, 1-[(5-Chloro-2-thienyl)methyl]-1,3-dihydro-2H-imidazole-2-thione] |  | Treated .046±.009*** µg/g | -22±5 mmHg | 13%
S=c1[nH]ccn1Cc1ccco1 [Compound 3, 1-(2-Furanylmethyl)-1,3-dihydro-2H-imidazole-2-thione] |  | Treated .079±.004*** µg/g |  | 
